Experiment: xn = mol fraction of the nth substance listed
Conditions: 92.3 kPa

CCCC[NH3+].O=C[O-] + CCO
Conditions	speed of sound, 293.15 K [m/s]	speed of sound, 298.15 K [m/s]	speed of sound, 303.15 K [m/s]	speed of sound, 308.15 K [m/s]	speed of sound, 313.15 K [m/s]	viscosity, 293.15 K [mPa·s]	viscosity, 298.15 K [mPa·s]	viscosity, 303.15 K [mPa·s]	viscosity, 308.15 K [mPa·s]	viscosity, 313.15 K [mPa·s]
x1 = 0.0484	1197.4	1180.8	1164.2	1147.9	1131.6	1.91	1.672	1.512	1.37	1.247
x1 = 0.1038	1232	1215.9	1199.9	1184	1168.2	2.85	2.5	2.26	2.04	1.845
x1 = 0.1507	–	1242.7	1227	1211.4	1196	–	3.44	3.07	2.76	2.49
x1 = 0.2004	1283.9	–	1253.1	–	1222.7	5.28	–	4.15	–	3.33
x1 = 0.2564	1310.4	1295.2	–	–	1250.5	7.29	6.4	–	–	4.54
x1 = 0.2938	1326.3	1311.4	1296.6	1281.9	1267.4	9	7.92	6.99	6.2	5.53
x1 = 0.355	1350.5	1336	–	–	1292.9	12.31	10.71	–	–	7.3
x1 = 0.3886	–	1348.5	1334.2	1320	–	–	12.67	11.04	9.68	–
x1 = 0.4521	1384.5	1370.5	–	–	1328.9	19.7	16.96	–	–	11.16
x1 = 0.5005	1399.2	1385.4	–	1358.1	1344.6	24.9	21.3	–	15.84	13.79
x1 = 0.5487	1413.1	1399.5	1386	1372.7	1359.4	30.5	25.8	22	18.89	16.39
x1 = 0.5982	1426.3	1412.9	–	1386.5	1373.5	37.6	31.7	–	23.1	19.7
x1 = 0.6393	1436.7	1423.5	1410.4	–	1384.7	44.9	37.5	31.5	–	23
x1 = 0.6993	1450.9	1437.9	1425.1	–	1399.8	57.4	47.4	39.5	–	28.3
x1 = 0.749	1462.1	1449.3	1436.6	1424.1	1411.7	70.3	57.5	47.7	39.9	33.8
x1 = 0.7972	–	1459.5	1447	1434.7	1422.5	–	69.5	57.1	47.4	39.8
x1 = 0.8487	1482	–	1457.2	1445.1	1433.2	103.8	–	68.4	56.6	47.2
x1 = 0.8993	1491.4	1479.1	1467	1455	1443.2	126.4	101.1	81.9	67.2	55.7
x1 = 0.9444	–	–	1475.2	1463.4	1451.8	–	–	95.8	78.1	64.4
x1 = 1	1508.6	1496.5	1484.7	1473.1	1461.7	182.3	143.6	114.7	92.7	76.1

CCO + CCCC[NH3+].O=C[O-]
x2 = 0
Conditions	speed of sound [m/s]	viscosity [mPa·s]
293.15 K	1160.1	1.238
298.15 K	1142.9	1.092
308.15 K	1109	0.912
313.15 K	1092.3	0.836

— a compilation of properties of binary mixtures (doi:10.1016/j.jct.2022.106970)
